Test results published in patent US11976062B2, “Benzisoxazole compound” (OSAKA UNIVERSITY, priority 2018, dated 2024).

Molecular target: T1, TRPC6 channel (Homo sapiens, UniProt Q9Y210)
T1 construct: expressed in transfected cells; host or cells: HEK293
T1 sequence (Q9Y210 1-931): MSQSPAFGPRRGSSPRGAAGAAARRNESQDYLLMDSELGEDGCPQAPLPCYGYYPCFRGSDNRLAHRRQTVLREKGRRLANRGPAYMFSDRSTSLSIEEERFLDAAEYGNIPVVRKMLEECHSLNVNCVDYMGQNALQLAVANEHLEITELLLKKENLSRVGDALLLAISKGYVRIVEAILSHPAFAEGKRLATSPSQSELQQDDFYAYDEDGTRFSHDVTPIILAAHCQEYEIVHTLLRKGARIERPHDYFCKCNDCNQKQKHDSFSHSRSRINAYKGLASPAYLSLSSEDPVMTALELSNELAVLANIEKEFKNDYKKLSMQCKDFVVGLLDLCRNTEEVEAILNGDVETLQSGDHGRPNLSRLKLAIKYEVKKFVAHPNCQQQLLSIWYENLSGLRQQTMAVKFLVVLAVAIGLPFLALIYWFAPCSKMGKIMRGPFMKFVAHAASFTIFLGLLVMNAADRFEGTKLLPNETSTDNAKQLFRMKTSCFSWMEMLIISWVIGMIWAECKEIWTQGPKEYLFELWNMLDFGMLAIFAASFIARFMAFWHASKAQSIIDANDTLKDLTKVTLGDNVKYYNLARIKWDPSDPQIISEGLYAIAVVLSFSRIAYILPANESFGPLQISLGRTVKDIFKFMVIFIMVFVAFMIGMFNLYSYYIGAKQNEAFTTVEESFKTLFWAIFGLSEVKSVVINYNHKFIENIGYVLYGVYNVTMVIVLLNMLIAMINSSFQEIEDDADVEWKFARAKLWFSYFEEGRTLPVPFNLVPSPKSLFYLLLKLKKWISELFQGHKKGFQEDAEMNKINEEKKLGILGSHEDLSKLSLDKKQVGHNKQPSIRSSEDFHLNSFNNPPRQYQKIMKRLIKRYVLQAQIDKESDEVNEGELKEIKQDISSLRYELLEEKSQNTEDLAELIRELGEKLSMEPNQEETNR
Assay: Calcium assay using HEK293 cells transiently expressing TRPC6 channel, carbachol activation (Fura-2)
Assay type: cell-based
Protocol: A TRPC6 gene was introduced into HEK293 cells (cells derived from human fetal kidney) by lipofection, and the TRPC6 channel was expressed on the cell membrane. Specifically, the plasmid DNA of TRPC6 (pCI-neo; Promega Corporation) was introduced into HEK293 cells using a lipofection reagent, and then cultured at 37° C. for 24 to 48 hours to express the TRPC6 channel on the cell membrane. In the same manner, HEK293 cells into which the TRPC3 gene was introduced were cultured, and the TRPC3 channel was expressed on the cell membrane.
The cultured cells were peeled off with trypsin and seeded on a cover glass again, followed by culturing the cells at 37° C. for 3 hours again. A Fura-2 AM calcium indicator was added to the medium, and the cells were cultured at 37° C. for 30 minutes to allow the cells to incorporate the indicator. For the extracellular solution, a Ca^2+-containing solution and a Ca^2+-free solution were prepared. • Ca^2+-containing solution: 2 mM CaCl2, 132 mM NaCl, 4 mM KCl, 1 mM MgCl2, 5 mM glucose, 5 mM HEPES (pH 7.4) • Ca^2+-free solution: 132 mM NaCl, 4 mM KCl, 1 mM MgCl2, 5 mM glucose, 5 mM HEPES (pH 7.4)
After the cells were added to the Ca^2+-containing solution, the following operation was performed while the fluorescence intensity (510 nm) of Fura-2 was measured at room temperature with an ARGUS CA-20 (Hamamatsu Photonics K.K.) over time. • 0 minutes: TRPC3-expressing cells or TRPC6-expressing cells are placed in a measurement chamber that contains the Ca^2+-containing solution. • After 30 seconds: The Ca^2+-containing solution is replaced with the Ca^2+-free solution. • After 1 minute: A predetermined amount of a test compound is added to the Ca^2+-free solution. • After 3 minutes: Carbachol (100 μM) is added to the Ca^2+-free solution. • After 7 minutes: The Ca^2+-free solution is replaced with the Ca^2+-containing solution that contains a test compound and carbachol […]. • After 15 minutes: Measurement is ended.
Compound 011 was used as the test compound, and the amount of the test compound added was 0.01, 0.1, 0.5, 1.0, 5.0, 10, or 50 μM. For the control, 0.1% DMSO was used in place of the test compound. Carbachol (cch) is a TRPC-channel-activating reagent. Applying carbachol to cells opens the TRPC channel and allows a large amount of Ca^2+ in the extracellular solution to flow into the cells. Fura-2 AM has high cell membrane permeability due to the presence of an AM group (acetoxymethyl group), and is thus easily incorporated into the cells. The AM group is hydrolyzed in the cells to become Fura-2. Thus, Fura-2 can form a chelate with Ca^2+ and is also unlikely to leak out of the cells due to the loss of the AM group.
In the same manner as in Test Example 1, the maximum calcium ion concentration was measured after 7 minutes from the start of measurement (i.e., after replacement with the Ca^2+-containing solution) by using TRPC6-expressing cells prepared in the same manner as in Test Example 1, except that 10 μM of Pyr 4 and 10 μM of compound 011, 031, 041, or 191 (test compound) were used. The average value of calcium ion concentrations up to 30 seconds after the start of measurement (the initial value of calcium ion concentration) was subtracted from the maximum calcium ion concentration, and the calculated value was determined to be the amount of increase in calcium ions. FIG. 3 illustrates the results.
The calcium ion concentration was measured in the same manner as in Test Example 2, except that 10 μM of compound 011, 361, 362(E), 362(Z), 371, 372(Z), 381, or 401 (test compound) was used, and Pyr 4 was not used, thereby determining the amount of increase in calcium ions. Table 2 illustrates the amount of increase in calcium ions for each test compound relative to the amount of increase in calcium ions in the control (DMSO) taken as 100%.

O=C(O)c1cnc(N2CCN(c3noc4cccc(C(F)(F)F)c34)CC2)c(Cl)c1 [Compound 011, 5-chloro-6-(4-(4-(trifluoromethyl)benzo[d]isoxazol-3-yl)piperazin-1-yl) nicotinic acid]
suppression of TRPC6 channel activation (decrease in calcium ion influx, FIG. 3) (10 μM test compound, carbachol): activation of the TRPC6 channel was suppressed | amount of increase in calcium ions relative to control (DMSO) taken as 100% (10 μM test compound, carbachol, TRPC6-expressing cells): 21% | Ca2+ concentration in the cells reached after addition of carbachol (TRPC6, FIG. 1, from about 100 nM, control (DMSO) about 280 nM): about 140 nM | IC50 (TRPC6-expressing HEK293 cells, carbachol 100 μM, from concentration-response curves, read-out: IC50 for inhibition of the TRPC6 channel): 4.6 µM
